Reference: US20240382473A1, “Combination Therapies for Treatment of Myelodysplastic Syndrome” (priority 2019, published 2024)

Experiments:
[1] = tested on: pRpb1 and MCL1 in primary MDS BMMCs; test: pRpb1 and MCL1 levels in MDS patient cells after alvocidib; type: cell-based, human; details: relative to DMSO
Excerpt: It has been shown that alvocidib reduces RNA pol II phosphorylation and MCL-1 expression in vitro. […] Phospho-RNA polymerase (pRpb1) and MCL-1 (MCL1) levels are decreased after alvocidib treatment in MDS patient cells (FIG. 23). Levels are indicated as a percent relative to levels measured for a DMSO treated sample. Numbers in parenthesis represent concentrations in nM for each alvocidib (Alvo) treatment.
(§1) Additionally, an assay has been tested in bone marrow mononuclear cells (BMMCs) from AML and MDS patients to examine MCL-1 dependency prior to therapy with alvocidib. Approximately 25% of AML patient BMMCs and 60% of MDS patient BMMCs are MCL-1 dependent. Azacitidine and decitabine increased NOXA expression in AML cell line models. […] Combination studies are currently under investigation to determine whether enhanced anti-cancer activity is observed through pharmacologic downregulation of MCL-1 via CDK9 inhibition by alvocidib and upregulation of the MCL-1 antagonist NOXA after HMA exposure.

[2] = tested on: luciferase expressing MV4-11 model; test: Luciferase expressing MV4-11 AML xenograft model; type: in vivo; details: alvocidib alone
[3] = tested on: MOLM13 xenograft model; test: MOLM13 xenograft model, tumor volume and survival; type: in vivo; details: aggressive daily dosing, tumor bearing mice
Description: FIGS. 31A and 31B show results from sequential dosing of alvocidib and HMAs in a MOLM13 model for MDS/sAML. HMA dosing sensitized AML cells to sequential dosing and improved survival in vivo. Alvocidib, azacytidine, and decitabine activity were assessed in the MOLM13 xenograft model. FIG. 31A is a plot of tumor volume over time and FIG. 31B is a plot of percent survival over time. Mice were dosed with alvocidib, qdx2, and/or an HMA, qdx3 on a weekly basis. Doses are indicated in mg/kg (mpk).
[…] show results from aggressive daily dosing of alvocidib and decitabine in the MOLM13 model. Tumor bearing mice were treated. Doses and schedule are indicated. FIG. 32A plots tumor volume following treatment and FIG. 32B plots body weight following treatment.

[4] = tested on: MDS BMMC's; test: Cell viability following 48 hours treatment (FIGS. 26A/26B; IC50 in MDS BMMC's); type: cell-based
Excerpt: as §1, with “alvocidib.” for “alvocidib. Approximately 25% of AML patient BMMCs and 60% of MDS patient BMMCs are MCL-1 dependent. Azacitidine and decitabine increased NOXA expression in AML cell line models.”
FIGS. 26A and 26B are scatter plots showing cell viability following 48 hours treatment at indicated concentrations of azacytidine (alone) or alvocidib (alone). FIG. 26A is a plot of cell viability following 48-hour treatment against indicated concentrations of azacitidine. […] FIG. 26B is a plot of cell viability following 48-hour treatment against indicated concentrations of alvocidib.

[5] = tested on: AML patients; test: NOXA priming of pre-treatment bone marrow versus response to alvocidib in AML patients; type: in vivo, human; details: patients with pre-treatment bone marrow NOXA priming greater than or equal to 40%
Excerpt: Furthermore, high NOXA Priming (MCL-1 dependence) is predictive of alvocidib sensitivity in AML patients. […] FIG. 16A is a box-plot showing that high NOXA priming (MCL-1 dependence) is predictive of alvocidib sensitivity in acute myeloid leukemia (AML) patients. The box-plot plots NOXA priming in complete remission and no response patient bone marrow samples taken from patients prior to being treated with alvocidib. […] NR=no response). The box-plot plots NOXA priming in complete remission and no response patient bone marrow samples taken from patients prior to being treated with 7+3 chemotherapy.

[6] = tested on: MCL-1 and NOXA expression in MV-4-11 cells; test: Western blot of NOXA and MCL-1 in MV-4-11 cells, alvocidib and azacytidine; type: cell-based; details: with azacytidine
Excerpt: FIG. 28A is an overview of an experimental used to evaluate an interaction between alvocidib and azacytidine with regard to MCL-1 and NOXA expression. FIG. 28B is a Western blot showing NOXA and MCL-1 levels in cells treated according to the experiment summarized in FIG. 28A at indicated drug concentrations.

[7] = tested on: circulating blasts; details: three-day dosing, in the clinic; cited from earlier work
[8] = tested on: OCI AML3 xenograft model; test: OCI AML3 xenograft model; type: in vivo
[9] = tested on: THP-1 AML model; test: THP-1 AML xenograft model; type: in vivo; details: alvocidib alone
[10] = tested on: NOXA and MCL-1 expression in CD34+ MDS BMMNC; test: Pharmacodynamic marker study, Western blot NOXA/MCL-1 in CD34+ MDS BMMNC; type: cell-based, human; details: Patient 0219; azacitidine 0.3 or 0.6 μM 24 hours, then alvocidib 0.1 μM 6 hours
Description: A pharmacodynamic maker study was performed for azaditidine and alvocidib using MDS patient-derived BMMNC from Cureline. CD34^+ cells were isolated by CD34 MicroBead Kit (Miltenyi Biotec) and cultured in StemSpan™ SFEM II with StemSpan™ CD34^+ Expansion Supplement (STEMCELL Technologies). […] Protein was extracted using RIPA buffer with protease and phosphatase inhibitor cocktail. Protein expression was assessed by Western blot using NOXA (CST, Cat #14766S), MCL-1(CST, Cat #392245) and β-actin (CST, Cat #4967L) antibodies. Apoptotic activity was assessed by Caspase-Glo® 3/7 assay (Promega).

[11] = tested on: RNA pol II phosphorylation and MCL-1 expression in MV-4-11 AML cells; test: Flow cytometry of RNA pol II phosphorylation and MCL-1 expression in MV-4-11 AML cells; type: cell-based; details: 24-hour treatment
[12] = tested on: CD34+ MDS BMMNC; test: Caspase-Glo 3/7 apoptotic activity in CD34+ MDS BMMNC (Example 17 efficacy study); type: cell-based, human; details: azacitidine 100 nM 24 hours, alvocidib 100 nM 24 hours
Description: CD34^+ cells were isolated by CD34 MicroBead Kit (Miltenyi Biotec) and cultured in StemSpan™ SFEM II with StemSpan™ CD34^+ Expansion Supplement (STEMCELL Technologies). […] Apoptotic activity was assessed by Caspase-Glo® 3/7 assay (Promega).

[13] = tested on: MCL-1 expression in MV4-11 cells; test: Western blot of MCL-1 protein in MV4-11 cells treated with alvocidib; type: cell-based
Excerpt: FIG. 9 is an illustration of a proposed mechanism by which alvocidib inhibits expression of MCL-1 by inhibiting CDK9.

[14] = clinical; details: human, in vivo; for AUC(0-t): 75 mg/m2, AUC(0-27); for Cmax: 75 mg/m2, Cmax; for Tmax: 75 mg/m2, Tmax
Excerpt: Plasma PK analyses for alvocidib and known metabolites, if any, and dose proportionality will be determined on Days 8 and 9 (for patients receiving alvocidib following DEC) or Days 10 and 11 (for patients receiving alvocidib following AZA) of Cycle 1 in all patients enrolled in the study, according to Table 5 or Table 6: […]

[15] = tested on: MDS patient-derived BMMCs (blasts); test: T-MS1 based MCL-1 dependency assay on MDS patient blasts; type: cell-based, human
Description: To determine the patients' cells' dependency on MCL-1 anti-apoptotic protein for survival, the MCL-1 binding protein, MS I with N-terminal modifications for improved cell penetrance was utilized. The modified peptide is referred to as T-MS1. When added to cells, T-MS1 crosses the plasma membrane and antagonizes MCL-I, leading to mitochondrial outer membrane […] (MOMP) formation and subsequently, depolarization of the mitochondria. Mitochondrial potential was assessed using the cationic dye, DiOC2(3), which accumulates in negatively-charged, healthy mitochondria. Fresh or previously frozen MDS bone marrow cells were treated with azacitidine or DMSO control in media containing RPMI+10% FBS+pen/strep for 48 hours prior to being interrogated with T-MS1. After blocking and staining with antibody cocktail to gate on MDS blasts, T-MS1 was added and cells were incubated for 30 minutes at 37° C. After T-MS1 treatment, cells were washed and stained with cationic dye, Dioc6, for 90 minutes to assess mitochondrial depolarization via flow cytometric analysis. Priming % was calculated using the formula: […]
For concordance with prior priming values, an additional calibration factor of 1.6 was applied to patient priming values.
To determine the patients' cells' MCL-1 dependency following treatment with azacitidine, MDS patient-derived BMMCs were treated with DMSO, 0.3 μM azacitidine, 1 μM azacitidine or 2.5 μM azacitidine for 48-72 hours before being assessed by the MCL-1 dependency assay.

[16] = tested on: CD34+ MDS BMMNC; test: Caspase-Glo 3/7 apoptotic activity in CD34+ MDS BMMNC (Example 16); type: cell-based, human; details: then DMSO or alvocidib 0.1 μM 6 hours
Description: A pharmacodynamic maker study was performed for azaditidine and alvocidib using MDS patient-derived BMMNC from Cureline. CD34^+ cells were isolated by CD34 MicroBead Kit (Miltenyi Biotec) and cultured in StemSpan™ SFEM II with StemSpan™ CD34^+ Expansion Supplement ([…] Technologies). Cells were seeded in 6-well plates and treated with DMSO or azacitidine (0.3 or 0.6 μM) for 24 hours. Following that, DMSO or alvocidib (0.1 μM) was sequentially added, and the cells were incubated for an additional 6 hours. Protein was extracted using RIPA buffer with protease and phosphatase inhibitor cocktail. Protein expression was assessed by Western blot using NOXA (CST, Cat #14766S), MCL-1(CST, Cat #392245) and β-actin (CST, Cat #4967L) antibodies. Apoptotic activity was assessed by Caspase-Glo® 3/7 assay (Promega).

[17] = tested on: NOXA expression in MV-4-11 AML cells / MOLM13 cells; test: Western blot for NOXA expression in AML cell lines treated with HMAs; type: cell-based
Description: (§2) In the decitabine experiments (FIGS. 24 and 36), the MV-4-11 AML cell line and MOLM13 cell line model for secondary AML (prior MDS) were used. MV-4-11 AML cells (or MOLM13 cells as indicated) were treated with indicated concentrations of decitabine for indicated times, and protein was assessed by Western blot for NOXA expression. […] FIGS. 24A and 24C are Western blots and FIG. 24B is a bar graph of mRNA concentrations. […] The Western blot was prepared from a MOLM13 xenograft treated with decitabine at 1 mg/kg IP for 24 hours.
In the azacitidine experiments (FIG. 25), MV-4-11 AML cells were treated with indicated concentrations of azacitidine for 24 hours and protein assessed by Western blot for NOXA expression.

[18] = tested on: MV-4-11 cells; test: MCL-1 dependency assay (T-MS1, Dioc6) in MV-4-11 cells; type: cell-based; details: for MCL-1 dependency versus DMSO controls: 24 hours
[19] = tested on: NOXA expression in MOLM13 xenograft; test: Western blot for NOXA from MOLM13 xenograft treated with decitabine; type: in vivo; details: decitabine 1 mg/kg IP, 24 hours
Description: as §2

CN1CC[C@H](c2c(O)cc(O)c3c(=O)cc(-c4ccccc4Cl)oc23)[C@H](O)C1 [alvocidib]
Phospho-RNA polymerase (pRpb1) and MCL-1 (MCL1) levels [1]: decreased | Phospho-RNA polymerase (pRpb1) and MCL-1 (MCL1) levels ([1]; listed as Alvocidib): dose dependent reduction | total flux count [2]: complete abrogation | tumor growth inhibition (% TGI) [3]: 75.8% | IC50 [4]: ~100 nM | complete recovery rate [5]: 100% | MCL-1 and NOXA levels (Western blot) [6]: inhibits upregulation of MCL-1 by azacytidine without affecting NOXA induction | average reduction of circulating blasts [7]: greater than 75% | tumor growth inhibition (% TGI) [8]: 55.0% | TGI [9]: 30.8% | NOXA and MCL-1 protein expression (Western blot) versus DMSO [10]: suppressed MCL-1 expression | inhibition of RNA pol II phosphorylation and MCL-1 expression [11]: dose-dependent | increase of apoptotic activity versus DMSO ([12]; Patient 0219): 31% | increase of apoptotic activity versus DMSO ([12]; Patient 1115 (high-risk MDS)): 240% | MCL-1 protein in response to alvocidib (Western blot) ([13]; FIG. 8 left panel): dose-dependent decrease | duration of knock-down of MCL-1 ([13]; MV4-11 cells, 80 nM alvocidib): exceeds 96 hours | decrease of AUC going from cohort 4 to cohort 5 [14]: 47.6% | decrease of Cmax going from cohort 4 to cohort 5 [14]: 15.4% | AUC(0-t) [14]: 3410 ng·h/mL | AUC(0-t) ([14]; Mean): 4080 ng·h/mL | Cmax [14]: 868 ng/mL | Cmax ([14]; Mean): 924 ng/mL | half-life ([14]; 75 mg/m2, T1/2): 8.23 h | half-life ([14]; 75 mg/m2, T1/2, Mean): 8 h | Tmax [14]: 0 h | Tmax ([14]; Mean): 0 h

Nc1ncn([C@@H]2O[C@H](CO)[C@@H](O)[C@H]2O)c(=O)n1 [azacitidine]
priming trend across MDS bone marrow samples ([15]; 0.3, 1 and 2.5 μM azacitidine): dose-dependent increase in priming | percent priming ([15]; Patient 0216's blasts, 1 μM azacitidine): 115.3% | percent priming ([15]; Patient 0216's blasts, 2.5 μM azacitidine): 132.1% | percent priming ([15]; Patient 0515's blasts, 1 μM azacitidine): 82.1% | percent priming ([15]; Patient 0515's blasts, 2.5 μM azacitidine): 81.6% | percent priming ([15]; Patient 1060's blasts, 72-hour, 0.3 μM azacitidine): 45.8% | percent priming ([15]; Patient 1060's blasts, 72-hour, 1 μM azacitidine): 60.9% | maximum increase in priming ([15]; one patient sample): 35% | increase in apoptotic activity versus DMSO ([16]; azacitidine 0.3 μM 24 hours): 52% | increase in apoptotic activity versus DMSO ([16]; azacitidine 0.6 μM 24 hours): 62% | IC50 [4]: ~1000 nM | NOXA expression in AML cell line models [17]: increased | NOXA expression (Western blot), azacitidine ([17]; MV-4-11 AML cells, 24 hours): dose-dependent increase | NOXA and MCL-1 protein expression (Western blot) versus DMSO [10]: induced NOXA expression | increase of apoptotic activity versus DMSO ([12]; Patient 0219): 20% | increase of apoptotic activity versus DMSO ([12]; Patient 1115 (high-risk MDS)): 35% | MCL-1 dependency versus DMSO controls [18]: sensitized MV4-11 cells to MCL-1 dependent apoptosis | MCL-1 dependency versus DMSO controls ([18]; listed as azacytidine): increased MCL-1 dependency | MCL-1 dependence ([18]; azacitidine 2.5 μM): 29.6%

Nc1ncn([C@H]2C[C@H](O)[C@@H](CO)O2)c(=O)n1 [decitabine]
tumor growth inhibition (% TGI) [3]: 58.6% | NOXA expression in AML cell line models [17]: increased | NOXA expression (Western blot), decitabine ([17]; MV-4-11 AML cells or MOLM13 cells, indicated times): time-dependent increase | NOXA expression (Western blot) in xenograft [19]: increase in NOXA expression
